Key:
[1] = test system: late blight on tomato; assay type: in vivo, Plasmopara viticola; settings: tomato (Hofuku), therapeutic effect, sprayed after inoculation, active ingredient 100 ppm, disease severity 7 days after inoculation
[2] = test system: downy mildew (Plasmopara viticola) on grape; settings: in vivo

Q: With `Cc1nnnn1C(=NOCc1csc(NC(=O)OC(C)(C)C)n1)c1cccc(F)c1` [(20)-1] as the compound, how does the “Control value (%)” value [1] read?
A: The value was 80%.

Q: And the “Control value (%)” value [2]?
A: The value was 70%.

Q: With `CCCCOC(=O)Nc1cccc(CON=C(c2ccccc2)n2nnnc2C)n1` [(13)-5] as the compound, how does the “Control value (%)” value [1] read?
A: Its value is 90%.

Q: And the “Control value (%)” value [2]?
A: Its value is 70%.

Q: `CCCCOC(=O)Nc1cccc(CON=C(c2ccc([N+](=O)[O-])cc2)n2nnnc2C)n1` [(19)-29] was tested. Which “Control value (%)” value [1] did it give?
A: Its value is 100%.

Q: What about the “Control value (%)” value [2] of the same compound?
A: Its value is 80%.

Q: What does the source list for `CCOCC(=O)Nc1nc(CON=C(c2ccccc2)c2nnnn2C)cs1` [(6)-2]?
A: Control value (%) [1]: 80%; Control value (%) [2]: 70%

Q: With `CCCCCCCOC(=O)Nc1cccc(CON=C(c2ccccc2)c2nnnn2C)n1` [(3)-16] as the compound, how does the “Control value (%)” value [1] read?
A: The value was 100%.

Q: What about the “Control value (%)” value [2] of the same compound?
A: Its value is 100%.

Q: `CCC(C)(C)OC(=O)Nc1cccc(CON=C(c2ccccc2)c2nnnn2C)n1` [(3)-21] was tested. Which “Control value (%)” value [1] did it give?
A: The value was 100%.

Q: And the “Control value (%)” value [2]?
A: The value was 70%.

Q: `CCCC(=O)Nc1nc(CON=C(c2ccc(Cl)cc2)n2nnnc2C)cs1` [(18)-1] was tested. Which “Control value (%)” value [1] did it give?
A: The value was 100%.

Q: What about the “Control value (%)” value [2] of the same compound?
A: Its value is 100%.

Q: What does the source list for `CCCCOC(=O)Nc1cccc(CON=C(c2ccc(C(F)(F)F)cc2)n2nnnc2C)n1` [(19)-31]?
A: Control value (%) [1]: 100%; Control value (%) [2]: 90%

Q: For `CC(C)OC(=O)Nc1cccc(CON=C(c2ccccc2)c2nnnn2C)n1` [(3)-4], which “Control value (%)” value [1] is on record?
A: Its value is 100%.

Q: What about the “Control value (%)” value [2] of the same compound?
A: The value was 90%.

Q: `CCCCOC(=O)Nc1nc(CON=C(c2ccccc2)n2nnnc2C)cs1` [(14)-5] was tested. Which “Control value (%)” value [1] did it give?
A: The value was 80%.

Q: What about the “Control value (%)” value [2] of the same compound?
A: The value was 70%.

Q: `CCCCCOC(=O)Nc1cccc(CON=C(c2ccccc2C)c2nnnn2C)n1` [(9)-10] was tested. Which “Control value (%)” value [1] did it give?
A: The value was 100%.

Q: What about the “Control value (%)” value [2] of the same compound?
A: The value was 100%.

Q: Which results are given for `Cn1nnnc1C(=NOCc1cccc(NC(=O)OC(C)(C)C)n1)c1ccccc1` [(3)-8]?
A: Control value (%) [1]: 100%; Control value (%) [2]: 100%

Q: Which “Control value (%)” value [1] does the source give for `Cn1nnnc1C(=NOCc1csc(NC(=O)OCc2ccccc2)n1)c1ccccc1` [(4)-18] here?
A: Its value is 90%.

Q: What about the “Control value (%)” value [2] of the same compound?
A: The value was 70%.

Q: Which results are given for `Cn1nnnc1C(=NOCc1cccc(NC(=O)OC2CCCCC2)n1)c1ccccc1` [(3)-23]?
A: Control value (%) [1]: 100%; Control value (%) [2]: 80%

Q: What does the source list for `CCCOC(=O)Nc1cccc(CON=C(c2cccc(F)c2)c2nnnn2C)n1` [(9)-6]?
A: Control value (%) [1]: 100%; Control value (%) [2]: 70%

Q: What does the source list for `CCCCCOC(=O)Nc1cccc(CON=C(c2ccc(C)cc2)c2nnnn2C)n1` [(9)-5]?
A: Control value (%) [1]: 100%; Control value (%) [2]: 100%

Q: `Cc1nnnn1C(=NOCc1cccc(NC(=O)C2CC2)n1)c1ccccc1` [(11)-21] was tested. Which “Control value (%)” value [1] did it give?
A: The value was 90%.

Q: What about the “Control value (%)” value [2] of the same compound?
A: The value was 70%.

Q: `Cc1nnnn1C(=NOCc1csc(NC(=O)C(C)C)n1)c1ccccc1` [(12)-7] was tested. Which “Control value (%)” value [1] did it give?
A: Its value is 100%.

Q: What about the “Control value (%)” value [2] of the same compound?
A: Its value is 90%.

Q: Which results are given for `Cc1nnnn1C(=NOCc1cccc(NC(=O)OC(C)(C)C)n1)c1ccccc1` [(13)-8]?
A: Control value (%) [1]: 100%; Control value (%) [2]: 90%

Q: With `COc1ccc(C(=NOCc2csc(NC(=O)C(C)(C)C)n2)c2nnnn2C)cc1` [(8)-10] as the compound, how does the “Control value (%)” value [1] read?
A: Its value is 90%.

Q: And the “Control value (%)” value [2]?
A: Its value is 70%.

Q: For `CCCCOC(=O)Nc1cccc(CON=C(c2ccc(F)cc2)n2nnnc2C)n1` [(19)-12], which “Control value (%)” value [1] is on record?
A: The value was 100%.

Q: What about the “Control value (%)” value [2] of the same compound?
A: The value was 90%.

Q: Which results are given for `CCCCOC(=O)Nc1cccc(CON=C(c2ccccc2C)c2nnnn2C)n1` [(9)-11]?
A: Control value (%) [1]: 100%; Control value (%) [2]: 100%

Q: Which results are given for `Cc1nnnn1C(=NOCc1csc(NC(=O)c2ccccc2)n1)c1ccccc1` [(16)-3]?
A: Control value (%) [1]: 80%; Control value (%) [2]: 70%

Reference: US7183299B2 (priority 2001, dated 2007)
